In assay [1] the test system is IL-6. Kind of assay: IL-6 ELISA in HIVIL (iKCs co-cultured with iHeps, LPS, 48 hr). Particulars: HIVIL. In kind it is cell-based, human.
The subject of assay [2] is IL-10. Kind of assay: IL-10 ELISA in HIVIL (iKCs co-cultured with iHeps, LPS, 48 hr). Particulars: result in words. Type of assay: cell-based, human. An excerpt:
Human iPSC cell line iPS (IMR90)-4 was purchased from WiCell Research Institute (Madison, WI), and maintained with a feeder-free method according to the instruction from […] Technologies (Vancouver, BC, Canada). The protocol of differentiation towards iKCs and iHeps as described previously with slight modification ([Tasnim et al., 2019]; [Cai et al., 2012]), respectively. […] More details are provided in Supplementary Methods. After differentiation, iKCs was harvested using 0.05 % trypsin-EDTA (Gibco, Waltham, Massachusetts, USA), while iHeps were dissociated with TrypLE^TM (Gibco). iHep suspension was further filtered through a 40 µm cell strainer to remove extracellular matrix clumps. Cell suspension was centrifuged at 1000 rpm for 5 min. For co-culture set up, tissue culture plates were coated with Rat tail collagen I (Gibco) diluted 100-fold in 0.02 N acetic acid, and incubated at 37 °C for 1 h and washed 3 times with PBS. […]
Enzyme-linked immunosorbent assay (ELISA) for measurement of cytokines: Interleukin-6 (IL-6), interleukin-10 (IL-10) and tumor necrosis factor alpha (TNFα) levels in the media were measured using the corresponding human-based ELISA kits (Abcam, Cambridge, United Kingdom) according to manufacturer’s instructions. […]
(An ELISA detects its analyte on a solid surface through an enzyme-linked reagent.)

Assay [3] deals with TNFα. Briefly: TNFα ELISA in HIVIL (iKCs co-cultured with iHeps, LPS, 48 hr). Type of assay: cell-based, human. Particulars: low dose 3.125 μM and 6.25 μM. The source says:
Human iPSC cell line iPS (IMR90)-4 was purchased from WiCell Research Institute (Madison, WI), and maintained with a feeder-free method according to the instruction from […] Technologies (Vancouver, BC, Canada). The protocol of differentiation towards iKCs and iHeps as described previously with slight modification ([Tasnim et al., 2019]; [Cai et al., 2012]), respectively. […] More details are provided in Supplementary Methods. After differentiation, iKCs was harvested using 0.05 % trypsin-EDTA (Gibco, Waltham, Massachusetts, USA), while iHeps were dissociated with TrypLE^TM (Gibco). iHep suspension was further filtered through a 40 µm cell strainer to remove extracellular matrix clumps. Cell suspension was centrifuged at 1000 rpm for 5 min. For co-culture set up, tissue culture plates were coated with Rat tail collagen I (Gibco) diluted 100-fold in 0.02 N acetic acid, and incubated at 37 °C for 1 h and washed 3 times with PBS. According to the protocol optimized by [Tasnim et al. (2019)], iKCs was firstly seeded at a density of 14,000 per well on 96-well plate with Advanced DMEM (plus supplements) containing 5 % FBS. On the following day, iHeps were added at a density of 35,000 per well in Williams’ Medium E (plus supplements) (iHep: iKCs ratio = 2.5: 1). This reflects the physiological ratio of these cells in vivo under inflammatory conditions ([Tasnim et al., 2021]). Fresh media containing drugs was applied to co-cultures the next day. 50,000 cells were seeded to establish iHeps monoculture. THP-1 cells were kindly obtained from Dr. Eliza Fong and cultured as described by [Zeng et al. (2015)]. Details provided in Supplementary Methods.
Stock solutions of drugs were prepared in dimethyl sulfoxide (DMSO) and dissolved in medium prior to use. […] For these two drugs, the highest DMSO concentration was 1 %. Supernatant was collected at 48 hr for measurement of cytokines, and remaining cells were subjected to viability assay prior to lysis for RNA extraction.
Enzyme-linked immunosorbent assay (ELISA) for measurement of cytokines: Interleukin-6 (IL-6), interleukin-10 (IL-10) and tumor necrosis factor alpha (TNFα) levels in the media were measured using the corresponding human-based ELISA kits (Abcam, Cambridge, United Kingdom) according to manufacturer’s instructions. The cytokine production from dosed cells was normalized with the viability value from the same well. The normalized cytokine level upon drug treatments was further presented as percentage of DMSO+LPS. […] This normalization approach has been used in previous studies (Rose et al. 2016).

Assay [4] relates to iHeps. Briefly: RNA-Seq of iHeps from mono-culture and HIVIL. In kind it is cell-based, human. The source says: Subsequent analyses compared gene fold-changes of treated samples against their respective vehicle controls: "m" and "c" indicate mono- and co-culture, and "–" and "+" represent the absence or presence of LPS. […] However, this is only applicable for co-cultures where downstream effects can be traced back to cytokine changes, and not in monocultures where significant upstream cytokine changes are not observed.
RNA extraction was done using TRIzol and analyzed on a Tapestation 4200 to determine RNA Integrity Number (RIN). Only samples with RIN > 8 were sequenced. Illumina Stranded mRNA multiplexing was done with unique 96 dual indices, and all samples sequenced on the same lane of NovaSeq 6000 S4 flowcell. Data normalization was performed using DESeq2 v1.32.0 ([Love et al., 2014]) on the R programming language v4.1.0 ([R Core Team, 2021]; [R Team, 2021]). Gene enrichment analysis was done with fgsea v1.18 ([Korotkevich et al., 2021]) with gene sets downloaded from MSigDB and KEGG pathway visualization done via pathview v1.32 ([Kanehisa et al., 2021]; [Luo and Brouwer, 2013]). Other plots were produced using ggplot2 v3.3.5 and scatterplot3d v0.3-41 ([Ligges and Maechler, 2003]). The RNA-Seq dataset has been deposited in NCBI under accession number GSE189320.
RNA seq and analysis: After 48 hr of drug treatment, iHeps cultured in mono-culture and HIVIL were both subjected to TrypLE^TM dissociation, and subsequently sorted with magnetic separation with the CD163 Microbead kit (Miltenyi Biotec, Bergisch Gladbach, Germany) to obtain only iHeps. Flow-through was collected, pelleted down and snap-frozen in liquid nitrogen, before storage at -80°C. Lysates were sent to the Genome Research Informatics and Data Science platform (Agency for Science, Technology and Research, Singapore). RNA extraction was done using TRIzol and analyzed on a Tapestation 4200 to determine RNA Integrity Number (RIN). All sequenced samples included for further analysis had RIN > 8. Illumina Stranded mRNA multiplexing was done with unique 96 dual indices, and all samples sequenced on the same lane of NovaSeq 6000 S4 flowcell. Sequenced reads were trimmed for adaptor sequence using Trim Galore v0.6.4, then aligned to human genome build GRCh38 using STAR_2.6.1d. Aligned reads are summarized into count matrices using featureCounts v1.6.4 with the gene annotation file from GENCODE v37.
Data normalization was performed using DESeq2 v1.32.0 (Love et al. 2014) on the R programming language v4.1.0 (Core Team 2021; Team 2021). Gene enrichment analysis was done with fgsea v1.18 (Korotkevich et al. 2021) with gene sets downloaded from MSigDB and KEGG pathway visualization done via pathview v1.32 (Kanehisa et al. 2021; Luo and Brouwer 2013). Other plots were produced using ggplot2 v3.3.5 and scatterplot3d v0.3-41 (Ligges and Maechler 2003). The RNA-Seq dataset has been deposited in NCBI under accession number GSE189320.

The test system of assay [5] is IL-6. Also noted: method as in ref Hassan et al. 2016; Giustarini et al. 2019; Higuchi et al. 2012; Dik et al. 2018. Particulars: ref Hassan et al. 2016; Giustarini et al. 2019; Higuchi et al. 2012; Dik et al. 2018; cited from earlier work.
In assay [6] the test system is TNFα. Particulars: ref Shaw et al. 2010; Zou et al. 2009; Bekker et al. 2012; Gandhi et al. 2013; Heidari et al. 2019; cited from earlier work.

What is called IC50 is the midpoint of a concentration-inhibition curve. A low value points to higher potency.

Consider `N[C@@H]1[C@H]2CN(c3nc4c(cc3F)c(=O)c(C(=O)O)cn4-c3ccc(F)cc3F)C[C@@H]12` [TVX, Trovafloxacin], for which the “effect on cytokine production” value in assay [1] (high doses (>25 μM)) is “inhibitory effects”. The IL-6 induction in assay [1] (low dose 3.125 μM and 6.25 μM) is reported as 1.5 fold. This compound also displayed an IC50 in assay [1] (Homo sapiens, LPS, 48 hr) of 16.2 µM. For the same compound, the IL-10 response entry in assay [2] was “dose-dependent IL-10 decrease”. This compound also came in with a TNFα induction in assay [3] of 1.5 fold. In addition, the “pro-inflammatory cytokine and chemokine mRNA expression” value in assay [4] (LPS-treated co-cultures) is reported as “significantly increased”. Further, in assay [4] (cTVX+, 25 µM), the FADD upregulation is 1.7 fold, the TNFα transcription increase is on record as 2.3 fold, the cIAP-2 upregulation came to 3 fold and the “caspase 3 upregulation” value was determined as 1.8 fold. The compound further came in with an IL-8 transcription increase in assay [4] (co-culture, cTVX+ vs. cVeh+, 25 µM) of 3.2 fold. This compound also yielded a TNFα transcription in assay [4] (mTVX+ compared to mVeh+, 25 µM) of 0.9 fold. Besides, in assay [4] (mTVX+, 25 µM), the cIAP-2 upregulation came out at 1.5 fold. The compound also had an IL-8 transcription increase in assay [4] (mono-culture, mTVX+ vs. mVeh+, 25 µM) of 1.3 fold. Also, the “IL-6 transcription in iHeps” value in assay [4] (regardless of culture conditions, result in words) is listed as “slightly decreased”. For the same compound, in assay [5], the “Reported in-vivo (murine) responses: IL-6” value was “IL-6↑”. Besides, the “Reported in-vivo (murine) responses: TNFα” value in assay [6] was “TNFα↑”.

The values are drawn from publication PMC13289212, “HIVIL: A human in vitro inflammatory liver model recapitulates immune-associated drug effects with high predictivity” (NAM journal, 2025).
